How the values were obtained:
[1] = biological target: T1, human liver GK (GST-hLGK1) (Homo sapiens, UniProt P35557); experiment: Measurement of GK activation value; assay type: biochemical; conditions: GST-hLGK1 6 μg/mL, 5 mmol/L D-glucose, 50 μmol/L Mant-ATP, 60 min at 37° C.; concentration at midpoint between maximum activity value and control activity value
T1 construct: with a BamHI site added to immediately before the initiation codon; made in house; host or cells: Escherichia coli BL21 (Stratagene), plasmid pGEX6P-2/hLGK1
T1 sequence (P35557 1-464 isoform P35557-3): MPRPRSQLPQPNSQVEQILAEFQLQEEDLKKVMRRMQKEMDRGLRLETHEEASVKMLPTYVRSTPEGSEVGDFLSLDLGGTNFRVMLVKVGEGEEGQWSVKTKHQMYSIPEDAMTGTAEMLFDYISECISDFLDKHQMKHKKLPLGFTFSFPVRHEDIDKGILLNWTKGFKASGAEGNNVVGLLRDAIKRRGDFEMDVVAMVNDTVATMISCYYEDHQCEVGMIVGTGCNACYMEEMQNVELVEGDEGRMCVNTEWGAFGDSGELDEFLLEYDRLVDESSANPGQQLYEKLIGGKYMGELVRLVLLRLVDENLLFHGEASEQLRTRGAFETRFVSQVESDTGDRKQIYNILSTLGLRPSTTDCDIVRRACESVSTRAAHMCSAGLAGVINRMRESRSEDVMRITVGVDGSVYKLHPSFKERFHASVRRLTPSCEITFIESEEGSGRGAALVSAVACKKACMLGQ
Description: GK enzyme reactions were performed in 50 mmol/L HEPES pH 7.4, 200 mmol/L KCl, 5 mmol/L MgCl2, 2 mmol/L DTT, containing 50 μmol/L 2′-(or -3′)-O—(N-methylanthraniloyl)adenosine 5′-triphosphate (Mant-ATP) (Jena Bioscience GmbH), 5 mmol/L D-glucose, 5% DMSO and 6 μg/mL GST-hLGK1 obtained in Reference Example 2A in a total volume 50 μL. The reactions were performed in 384 well black plates (Nalge Nunc International K.K.). Prior to the reaction, the enzyme and test compound were incubated for 10 min at 37° C., and 25 mM D-glucose solution (10 μL) was added to start the reaction.
After the incubation for 60 min at 37° C., the reaction was quenched by adding 25 μL of a quenching solution (containing 200 mM HEPES (pH 7.4), 20 mM MgCl2, 200 mM EDTA, 0.03% Triton-X 100, 0.3% Coating 3 reagent (Caliper Life Sciences, Inc.)).
Mant-ATP (substrate, 2′- (or -3′)-O—(N-methylanthraniloyl) adenosine 5′-triphosphate) and Mant-ADP (reaction resultant product) were separated from each well after the reaction by a microchip type capillary electrophoresis apparatus 250 HTS (Caliper Life Sciences, Inc.). The reaction rate [(reaction resultant product peak height)/(reaction resultant product peak height+substrate peak height)×100(%)] was calculated from the ratio of the substrate peak height and reaction resultant product peak height obtained by fluorescence detection (excitation wavelength 355 nm, measurement wavelength 460 nm) and used as the index of GK activity.
As a control group, the reaction rate was calculated in the same manner as above without the test compounds.
The percentage obtained by dividing the reaction rate of the well added with each concentration of the test compound (test compound addition group) by the reaction rate of the control group was taken as the GK activity value, and the concentration of the test compound at the midpoint between the maximum activity value of the test compound addition group and the control group activity value is shown as EC50 value.

CS(=O)(=O)c1ccc(Oc2cc(OCc3cccc(Cl)n3)c3[nH]c(C4=NCC(CC(=O)O)S4)cc3c2)cc1 (stereo not drawn) [Example 7, (2-{7-[(6-Chloropyridin-2-yl)methoxy]-5-[4-(methylsulfonyl)phenoxy]-1H-indol-2-yl}-4,5-dihydro-1,3-thiazol-5-yl)acetic acid]
EC50 [1]: 42 nM
melting point: 175 to 176 °C

COc1cc(Oc2ccc(S(C)(=O)=O)nc2)cc2cc(C3=NCC(CC(=O)N(C)C)S3)[nH]c12 (stereo not drawn) [Example 79, 2-[2-(7-Methoxy-5-{[6-(methylsulfonyl)pyridin-3-yl]oxy}-1H-indol-2-yl)-4,5-dihydro-1,3-thiazol-5-yl]-N,N-dimethylacetamide]
EC50 [1]: 35 nM
melting point: 206 to 207 °C

COCCNC(=O)CC1CN=C(c2cc3cc(Oc4ccc(S(C)(=O)=O)nc4)cc(OC)c3[nH]2)S1 (stereo not drawn) [Example 78, N-(2-Methoxyethyl)-2-[2-(7-methoxy-5-{[6-(methylsulfonyl)pyridin-3-yl]oxy}-1H-indol-2-yl)-4,5-dihydro-1,3-thiazol-5-yl]acetamide]
EC50 [1]: 37 nM
melting point: 175 to 176 °C

COc1cc(Oc2ccc(S(C)(=O)=O)nc2)cc2cc(C3=NCC(CC(=O)NCC(C)(C)O)S3)[nH]c12 (single isomer, unassigned) [Example 74]
EC50 [1]: 28 nM
melting point: 173 to 174 °C

CNC(=O)CC1CN=C(c2cc3cc(Oc4ccc(S(C)(=O)=O)nc4)cc(OC)c3[nH]2)S1 (single isomer, unassigned) [Example 31, 2-[2-(7-Methoxy-5-{[6-(methylsulfonyl)pyridin-3-yl]oxy}-1H-indol-2-yl)-4,5-dihydro-1,3-thiazol-5-yl]-N-methylacetamide]
EC50 [1]: 28 nM
melting point: 196 to 197 °C

CS(=O)(=O)c1ccc(Oc2cc(OCC3CCOCC3)c3[nH]c(C4=NCC(CCO)S4)cc3c2)cc1 (stereo not drawn) [Example 19, 2-(2-{5-[4-(Methylsulfonyl)phenoxy]-7-(tetrahydro-2H-pyran-4-ylmethoxy)-1H-indol-2-yl}-4,5-dihydro-1,3-thiazol-5-yl)ethanol]
EC50 [1]: 44 nM
melting point: 104 to 105 °C
